Holding throughout (assay): HPLC-UV and LC-MS product detection
Common to all, as to assay type: biochemical

The target of experiment [1] is T1, CnqP4 (Streptomyces sp. CNQ-509, UniProt A0A0F7NDN9).
T1 construct: gene AA958_24270; full-length, 303 aa; N-terminal His8 tag (pHis8) kept; E. coli Rosetta2(DE3)pLysS
Conditions: […] aromatic substrate, […] GPP, […] MgCl2, Tris-HCl pH […] °C, […] h.

The target of experiment [2] is T2, CnqP6 (Streptomyces sp. CNQ-509, UniProt A0A0F7N6A5).
T2 construct: gene AA958_12635; full-length, 300 aa; N-terminal His8 tag (pHis8) kept; E. coli Rosetta2(DE3)pLysS
T2 sequence (A0A0F7N6A5 1-300): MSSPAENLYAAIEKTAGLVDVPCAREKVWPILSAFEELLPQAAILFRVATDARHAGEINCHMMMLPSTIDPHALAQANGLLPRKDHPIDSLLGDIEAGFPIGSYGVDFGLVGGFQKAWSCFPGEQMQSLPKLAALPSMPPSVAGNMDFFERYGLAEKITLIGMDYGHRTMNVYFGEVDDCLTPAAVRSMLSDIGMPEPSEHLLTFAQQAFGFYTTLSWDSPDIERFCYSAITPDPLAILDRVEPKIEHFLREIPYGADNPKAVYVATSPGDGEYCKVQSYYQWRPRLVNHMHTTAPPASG
Conditions: […] °C, […] h.

For experiment [3], the target named is T3, CnqP3 (Streptomyces sp. CNQ-509, UniProt A0A0F7NDP3).
T3 construct: gene AA958_24325; full-length, 305 aa; N-terminal His8 tag (pHis8) kept; E. coli Rosetta2(DE3)pLysS
T3 sequence (A0A0F7NDP3 1-305): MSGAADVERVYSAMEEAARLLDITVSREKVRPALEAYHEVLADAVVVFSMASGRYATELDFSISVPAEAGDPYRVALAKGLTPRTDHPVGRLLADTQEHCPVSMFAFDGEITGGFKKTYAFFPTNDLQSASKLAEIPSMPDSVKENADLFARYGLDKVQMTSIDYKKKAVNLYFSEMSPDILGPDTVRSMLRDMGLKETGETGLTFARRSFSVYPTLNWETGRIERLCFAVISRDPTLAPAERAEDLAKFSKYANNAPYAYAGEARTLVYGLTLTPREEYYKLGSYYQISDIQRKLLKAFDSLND
The following applies: […] °C, […] h.

Where [4] appears, read: […] aromatic substrate, […] GPP, […] MgCl2, Tris-HCl pH […].

T1 sequence (A0A0F7NDN9 1-303): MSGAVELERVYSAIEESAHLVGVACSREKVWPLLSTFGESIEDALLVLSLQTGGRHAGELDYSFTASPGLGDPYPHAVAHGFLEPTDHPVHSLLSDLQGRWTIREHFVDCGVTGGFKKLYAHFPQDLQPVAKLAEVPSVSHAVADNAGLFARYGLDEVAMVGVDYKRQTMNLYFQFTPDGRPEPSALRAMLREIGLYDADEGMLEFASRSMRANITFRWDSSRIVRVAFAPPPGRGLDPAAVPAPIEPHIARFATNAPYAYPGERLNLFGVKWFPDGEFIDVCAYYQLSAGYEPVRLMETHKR

For the compound `Oc1ccc2ccc(O)cc2c1` [2,7-DHN], the “HPLC-UV and LC-MS product detection” value in experiment [1] was “we found monogeranylated products for CnqP2, CnqP3 and CnqP4”.
Regarding `CC(C)=CCC/C(C)=C/COP(=O)(O)OP(=O)(O)O` [GPP], the “HPLC-UV and LC-MS product detection” value in experiment [2] (with genistein ([…]), […] GPP, […] MgCl2, Tris-HCl pH […]) is “genistein was converted with GPP by the prenyltransferases CnqP2, CnqP3 and CnqP6”; in experiment [3] (with flaviolin ([…]), […] GPP, […] MgCl2, Tris-HCl pH […]) it was “Incubation with GPP resulted in the production of a new compound”.
Take `O=C1C(O)=CC(=O)c2c(O)cc(O)cc21` [flaviolin]: the “HPLC-UV and LC-MS product detection” value in experiment [3] (setting [4]) is on record as “Only CnqP3 accepted flaviolin as a substrate”.
For `O=c1c(-c2ccc(O)cc2)coc2cc(O)cc(O)c12` [genistein], the “HPLC-UV and LC-MS product detection” value in experiment [2] (setting [4]) is “genistein was converted with GPP by the prenyltransferases CnqP2, CnqP3 and CnqP6”.

Values taken from PMC4684245, “Diversity of ABBA Prenyltransferases in Marine Streptomyces sp. CNQ-509: Promiscuous Enzymes for the Biosynthesis of Mixed Terpenoid Compounds” (PLoS ONE, 2015).
